Laboratory results reported in US8986712B2, “Peptides derived from HIV-1 gp41 transmembrane domain for t-immunomodulation” (Yeda Research and Development Co., Ltd., priority 2009, dated 2015).
Ends that are not written are not given here.

Key:
TCRα CP peptide = biological target: T1, TCRα CP peptide (Mus musculus, UniProt P01849); test: FRET between TCRα CP-NBD and Rho labeled peptides in PC LUV; format: binding; details: acceptor-to-lipid ratio of 1:1000
T1 construct: TCRα CP peptide was labeled with NBD, as a donor fluorophore; made in house; host or cells: chemical synthesis (Fmoc solid phase, Rink amide resin)
Method: (§1) Thin films of PC were generated after dissolving the lipids in a 2:1 (v/v) mixture of CHCL3/MeOH and drying them under a stream of nitrogen gas while rotating them. The films were lyophilized overnight, sealed with argon gas to prevent oxidation of the lipids, and stored at −20° C. Before the experiments, films were suspended in the appropriate buffer and vortexed for 1.5 min. The lipid suspension underwent five cycles of freezing-thawing and extrusion through polycarbonate membranes with 1- and 0.1-μm diameter pores to create large unilamellar vesicles.
(§2) The FRET experiments were performed by using NBD and Rho labeled peptides. Fluorescence spectra were obtained at room temperature, with excitation set at 467 nm (10-nm slit) and emission scan at 500-600 nm (10-nm slits). […] Fluorescence spectra were obtained before and after addition of the Rho labeled peptide. The fluorescence values were corrected by subtracting the corresponding blank (buffer with the same vesicles concentration). […]
Further investigations were performed to reveal whether gp41 TMD interacts solely with CD3 or perhaps it interacts with the TCRα TMD. […] Then, the fluorescence energy transfer (FRET) was measured between fluorescently labeled TCRα CP-NBD peptide and gp41 TM-Rho, TCRα CP-Rho or TAR/PS-Rho. […]

[1] = system: T cells activated by PMA/ionomycin; test: T-cell activation induced by PMA/ionomycin; format: cell-based, mice
Method: (§3) For some experiments, T cells were activated with immobilized anti-CD3 antibodies (Kaleeba et al., 1998, Int. Immunol. 10, 453-461) or PMA/ionomycin as described (Wang et al., 2002 Clin. Immunol. 105, 199-207). After 72 hours, at 37° C. in a 7.5% CO2 humidified atmosphere, the T-cells were pulsed with 1 μCi (H^3) thymidine, with a specific activity of 5.0 Ci/mmol, for 7 hours, and (H^3) thymidine incorporation was measured using a 96-well plate beta-counter. The mean cpm±Standard Error was calculated for each triplicate or quadruplicate. The results of T-cell proliferation experiments are shown as the percentage of T-cell proliferation inhibition triggered by the antigen in the absence of gp41 TMD peptides.
PMA/ionomycin activates the T cell downstream of the membrane regardless of the presence or absence of the TCR.

TLR2 TMD = biological target: T2, TLR2 TMD (Homo sapiens, UniProt O60603); test: FRET between NBD labeled peptides and TLR2-Rho in LUVs; format: binding; details: 100 μM LUVs; peptide 0.4 μM; TLR2-Rho 0.025-0.8 μM
T2 construct: made in house; host or cells: chemical synthesis (Fmoc solid phase, Rink amide resin)
T2 sequence (O60603 589-609 limits assumed): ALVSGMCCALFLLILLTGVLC
Method: as §1, §2
The energy transfer from the association of the gp41 TMD and the TLR2 TMD peptides was measured in the presence of 100 μM LUVs. […] As a control, the energy transfer between TLR2 and TAR1p/s (MVLGVFALLPLISGSL; SEQ ID NO:39) was measured. […]

[2] = system: T-cell line specific to MOG p35-55; test: T-cell proliferation induced by MOG 35-55 peptide and APC (H3-thymidine uptake); format: cell-based, mice; details: for cell survival in culture versus PBS control: T cells incubated with peptide
Method: T-cells were plated onto round 96-well plates in medium containing RPMI-1640 supplemented with 2.5% fetal calf serum (FCS), 100 U/ml penicillin, 100 μg/ml streptomycin, 50 μM 2β-mercaptoethanol, and 2 mM L-glutamine. 12×10^4 cells of the T-cell line specific to MOG p35-55, 5×10^5 irradiated (3000 rad) spleen cells (APC), and 10 μg/ml of MOG p35-55 were added to each well. In addition, peptides corresponding to the gp41 TMD region were added. Each determination was made at least in triplicate.
In order to exclude interaction between the examined peptides and the MOG p35-55 antigen, the MOG p35-55 antigen was initially added to the APCs in a test tube, and in a second test tube, the examined peptides were added to the T-cells. After 1 hour, the APCs and the T-cells were mixed and incubated for 72 h in a 96 well round bottom plate.
as §3
Lymph node cells were prepared from MOG 35-55/CFA immunized mice and their T cell response to the MOG 35-55 peptide was studied. T-cells were activated with the MOG 35-55 peptide and APC in the presence of gp41 TMD and TM11-19 (GLVGLRIVF; SEQ ID NO: 6) in three different concentrations (5, 25 and 50 μg/ml) and the proliferative responses was assayed. The T cell line proliferative response was determined after 3 days of incubation using a H3-thymidine uptake assay. […] The uninhibited T-cell proliferative responses were 9382±891 cpm.

CD3 molecules = test: Co-localization of NBD-labeled peptides with CD3/TCR molecules in T cells (confocal fluorescence microscopy); format: cell-based, mice; details: NBD-conjugated peptide 2 μM, 1 h at 37° C., MOG35-55 T-cells
Method: Resting MOG35-55 T-cells or after activation for 72 h with MOG35-55 and APC were blocked with 1% BSA at room temperature to block non-specific binding. After 30 min the cells were washed and divided into aliquots containing 100,000 cells per 100 μl, and either gp41 TMD or a control membrane-binding amphipathic peptide (AMP-scr) was added (final concentration of 2 μM) for 1 h at 37° c. The cells were then washed and labeled with the tested antibody for 25 min at RT followed by biotin-conjugated anti-hamster IgG 25 min at RT and Streptavidin PE-Cy-5 10 min at RT (eBioscience San-Diego Calif., USA). Anti-hamster IgG followed by Streptavidin-Cy-5 served as a measure of non-specific binding amphipathic (AMP) peptide served as low TCR affinity control. The cells were analyzed by confocal fluorescence microscopy using Lab-Tek 8 chambers cover-glass (nunc) with living cells. The labeled cell samples were observed under a fluorescence confocal microscope. PE-Cy-5 excitation was done with HeNe laser 633 nm (emission data was collected with filter BA660IF, 660 nm long pass). NBD excitation was done with Ar laser 488 nm (emission data was collected from 505-525 nm). The co-localization percentage was quantified suing the “Simple PCI” software, and calculated as: (Co-localization fluorescence/NBD fluorescence)×100=co-localization percentage. […]

[3] = system: RAW264.7 macrophage cells; test: TNFα secretion from RAW264.7 macrophages (ELISA); format: cell-based; details: peptide 20 μM for 2 hours
Method: RAW264.7 macrophage cells were plated in a 96 well plate at a concentration of 20,000 cells per well and grown over-night in RPMI medium supplemented with 10% FBS and 1% Pen-Strep and 1% L-glutamine at 37 degrees with 5% CO2. The following day media was changed and the gp41 TMD peptide was added at a concentration of 20 μM—dissolved in DMSO and diluted 1:100. The cells were incubated in the presence of the peptide for 2 hours afterwards the media was removed and cells were washed twice with 100 μl of fresh media. Lipopolysaccharide (LPS) and Lipoteichoic acid (LTA) ligands were added for 5 hours (LPS was added at the concentration of 10 ng/ml and LTA added at 500 ng/ml; cells were grown at this time with 200 μl). After 5 hours 150 were taken for the measurement of TNFα by an ELISA kit.
RAW264.7 macrophages were grown in the presence of gp41 TMD peptides for 2 hours at a concentration of 20 μM. As controls, RAW264.7 macrophages were grown in the presence of GGG peptides or in the absence of peptides (FIG. 10, GGG and Control, respectively). Thereafter, the medium was washed twice and 500 ng/ml of LTA or 10 ng/ml of LPS was added for 5 hours. In order to evaluate TNFα levels an ELISA assay was performed. Results are shown normalized to the level of TNFα secretion induced by the ligands in the absence of peptides (FIG. 10 Control). The result is an average of three measurements.

[4] = system: T-cells activated with anti-CD3; test: T-cell activation induced by mitogenic anti-CD3 antibodies; format: cell-based, mice; details: 1 μg/ml anti-CD3 and APC; 50 μg/ml peptide
Method: as §3
Mitogenic anti-CD3 antibodies activate CD3 signaling regardless of the presence or absence of TCR (Keppler et al., 2006, J. Leukoc. Biol. 79, 616-627). Thus, T-cells were activated with 1 μg/ml anti-CD3 and APC in the presence of 50 μg/ml gp41 TMD or gp41 TM11-19, and the proliferative responses were assayed. The TCRα Core Peptide (GLRILLLKV; SEQ ID NO: 37; TCRα CP) served as a control peptide.

Substance | inhibition of T cell activation by PMA/ionomycin [1] | percent of energy transfer with TLR2-Rho (TLR2 TMD) | cell survival in culture versus PBS control [2] | other results
TCRα CP-Rho: TCRα CP peptide labeled with Rho-TAMRA as an acceptor fluorophore (GLRILLLKV-NH2; also: labeled with Rho-TAMRA, position not given here) |  |  |  | energy transfer from TCRα CP-NBD (TCRα CP peptide): ~37%
GLRILLLKV [TCRα CP, reference compound] | did not inhibit |  |  | 
MVLGVFALLPLISGSL [TAR1p/s, reference compound] |  | no energy transfer was detected |  | 
KKKLFIMIVGGLVGLRIVFAVLSIKKK [gp41 TMD] | did not inhibit | over 60% | same survival in culture | inhibition of T-cell proliferation ([2]; MOG 35-55 peptide and APC, 5, 25 and 50 μg/ml peptide, 3 days, H3-thymidine uptake): dose dependent inhibition; co-localization percentage with the CD3 molecules (CD3 molecules): 58.8%; TNFα secretion in response to LPS ([3]; then 10 ng/ml LPS for 5 hours): reduces TNFα secretion; TNFα secretion in response to LTA ([3]; then 500 ng/ml LTA for 5 hours): inhibits TNFα secretion; inhibition of T-cell activation by mitogenic anti-CD3 antibodies [4]: inhibited
GLVGLRIVF-NH2 [TM11-19, GLVGLRIVF] |  |  | same survival in culture | 
